Source: EP3727043B1 (Golden Gait Biotech, S.L., priority 2017, dated 2019)
Read-outs that look alike come from different tables or passages of the source.

Assays:
[1] = system: patients with idiopathic PD and levodopa induced dyskinesias (LIDs)
Procedure: At the time the study was performed (2009), there was no FDA accepted instrument for measuring treatment efficacy for LIDs. Therefore, several secondary objectives were utilized to assess efficacy including the Unified Dyskinesia Rating Scale (UDysRS).
A total of 65 male and female subjects with idiopathic PD with LIDs were randomized in the study. The study consisted of 4 phases (FIG. 6A): screening phase (up to 3 weeks), double-blind treatment phase (10 weeks), taper phase (2 weeks), and follow-up phase (2 weeks). The approximate duration of the study for each subject was 17 weeks. […] During the double-blind treatment phase, dosing was begun at Visit 0 at 1 mg every 6 hours (total daily dose [TDD] = 4 mg/day) and escalated upwards at 2-week intervals as follows: 2 mg every 6 hours (TDD = 8 mg/day) at Visit 1 (Week 2); 4 mg every 6 hours (TDD = 16 mg/day) at Visit 2 (Week 4); 6 mg every 6 hours (TDD = 24 mg/day) at Visit 3 (Week 6). Subjects were maintained on 24 mg/day for 4 weeks. The subsequent taper phase (2 weeks total), beginning at Visit 4 (Week 10), consisted of 9 days of drug taper and 5 days off drug prior to Visit 5 (final safety visit). […] Ondansetron was provided by the sponsor and dispensed with each dose escalation step with instructions to use it for nausea and vomiting only during the first 4 days following dose initiation or escalation. […] No other dose down-titration was allowed. Table 5. Dose Escalation Schedule
A total of 65 patients with idiopathic PD and levodopa induced dyskinesias (LIDs) were randomized. Patients were required to have a diagnosis of idiopathic PD and be within a Hoehn & Yahr Stage II - IV while in a peak "ON" state(levodopa in a therapeutic range). They had to have moderate to severely disabling LIDs for at least 25% of the waking day, as determined by Questions 32 and 33 in Part II of the UPDRS and a Mini-Mental State Examination (MMSE) score of ≥26. Patients with atypical Parkinson disorders, prior deep brain stimulation (DBS), unstable angina, a history of ventricular arrhythmias, or active peptic ulcer or a history of schizophrenia, schizoaffective disorder, or bipolar disease were excluded. Patients who actively smoked were also excluded. Table 9: Demographics
The drug, or a placebo identical in appearance and packaging, was administered orally 4 times a day in a blinded fashion. Patients were examined while in an "ON" state, when levodopa was in a therapeutic range. During the treatment phase, dosing was begun at 1 mg every 6 hours (total daily dose=4 mg/day) and escalated upwards at 2-week intervals as follows: 2 mg every 6 hours at Visit 1; 4 mg every 6 hours at Visit 2; 6 mg every 6 hours at Visit 3. Patients were maintained on 24 mg/day for 4 weeks. All patients, study site personnel, raters and the sponsor were blinded to treatment assignment.
The original UPDRS scale was used. […] In the UPDRS Part II, Question 13 is on Falling unrelated to Freezing. […] In Part II, Question 14 is on Freezing when Walking. This is a 5-point item and has two variables freezing and falls. […] Questions 13 and 14 were compared separately (Table 11). […] Table 10: UPDRS Part II (ADL), UPDRS Part III (Motor Examination)
LIDs were assessed by the UDysRS, the main measure of LIDs (Table 12). […] The study was conducted in accordance with the Declaration of Helsinki and Good Clinical Practice Guidelines. All sites received approval from an institutional review board and written informed consent was obtained from each patient prior to participation. Table 12. Unified Dyskinesia Rating Scale (UDysRS)
All hypotheses were tested using 2-sided tests with alpha set at the 0.050 level of significance. In general, efficacy data were summarized by treatment group, and safety data were summarized by treatment group and overall.

[2] = system: patients with idiopathic PD and levodopa induced dyskinesias (LIDs); remark: listed apart in the source
Procedure: Efficacy was measured with the Unified Dyskinesia Rating Scale (UDysRS), a semi- quantitative assessment, FDA-validated instrument to assess gait, balance and dyskinesia in PD. […] Dosing was begun at 1 mg every 6 hours to a final dose of 24 mg per day.
All hypotheses were tested using 2-sided tests with alpha set at the 0.050 level of significance. In general, efficacy data were summarized by treatment group, and safety data were summarized by treatment group and overall. In all analyses, assumptions such as normality and homogeneity of variance were examined prior to conducting the proposed parametric statistical procedures. Categorical variables were analyzed by Fisher's exact 2- tailed test and continuous variables were tested under 2-sample t-tests. The equality of variances was examined using an F-test before applying the 2-sample t-test.

[3] = oral administration of capsules
clinical = details: human, plasma, po
[4] = Baseline to Week 10, 30 NP002 patients
[5] = Baseline to Week 10, minus = improvement, 30 NP002 patients
[6] = Baseline to Week 10, plus = worsening, 30 NP002 patients
[7] = NP002 Patients Baseline (before treatment)
[8] = NP002 patients at 10 Weeks, up to 24 mg/day orally
[9] = NP002 patients at Baseline (before treatment)

CN1CCCC1c1cccnc1.O=C(O)C(O)C(O)C(=O)O (centres unmarked) [NP002, Nicotine Bitartrate]
UPDRS Part II (ADL) and Part III (Motor Examination) after treatment, NP002 vs placebo ([1]; 10 weeks): no significant differences | Falls (UPDRS Part II Question 13), number of patients with change -3 ([1]; Baseline to Week 10, 5-point scale, minus = improvement, 30 NP002 patients): 1 | FOG (UPDRS Part II Question 14), number of patients with No Change [1, 4]: 17 | FOG (UPDRS Part II Question 14), number of patients with change +2 [1, 4]: 0 | FOG (UPDRS Part II Question 14), number of patients with change +3 [1, 4]: 0 | FOG (UPDRS Part II Question 14), number of patients with change -1 [1, 4]: 10 | FOG (UPDRS Part II Question 14), number of patients with change -2 [1, 4]: 2 | Falls (UPDRS Part II Question 13), number of patients with No Change [1, 4]: 16 | Falls (UPDRS Part II Question 13), number of patients with change +2 [1, 4]: 0 | Falls (UPDRS Part II Question 13), number of patients with change +3 [1, 4]: 0 | Falls (UPDRS Part II Question 13), number of patients with change -1 [1, 4]: 7 | Falls (UPDRS Part II Question 13), number of patients with change -2 [1, 4]: 5 | Pull Test (Item 30 of the UPDRS Part III), number of patients with No Change [1, 4]: 19 | Pull Test (Item 30 of the UPDRS Part III), number of patients with change +2 [1, 4]: 0 | Pull Test (Item 30 of the UPDRS Part III), number of patients with change +3 [1, 4]: 0 | Pull Test (Item 30 of the UPDRS Part III), number of patients with change -1 [1, 4]: 5 | Pull Test (Item 30 of the UPDRS Part III), number of patients with change -2 [1, 4]: 5 | FOG (UPDRS Part II Question 14), number of patients with change -3 [1, 5]: 0 | Pull Test (Item 30 of the UPDRS Part III), number of patients with change -3 [1, 5]: 0 | FOG (UPDRS Part II Question 14), number of patients with change +1 [1, 6]: 1 | Falls (UPDRS Part II Question 13), number of patients with change +1 [1, 6]: 1 | Pull Test (Item 30 of the UPDRS Part III), number of patients with change +1 [1, 6]: 1 | patients with a reduction in falls ([1]; Fourteen of 30 NP002 patients, p=0.00857 vs placebo): 47% | Total Score UDysRS [1, 7]: 51.7 +/-16.9 | UDysRS Evaluation of Dyskinesias on 7 Body Parts [1, 7]: 13.5 +/-5.4 | UDysRS Evaluation of Dyskinesias on Ambulation [1, 7]: 9.5 +/- 6.0 | UDysRS Evaluation of Dyskinesias on Communication [1, 7]: 10.5 +/-4.8 | UDysRS Evaluation of Dyskinesias on Dressing [1, 7]: 11.3 +/-6.2 | UDysRS Evaluation of Dyskinesias on Drinking [1, 7]: 9.1 +/- 5.6 | Total Score UDysRS ([1]; NP002 Patients Week 10): 36.4 +/-16.1 | UDysRS Evaluation of Dyskinesias on 7 Body Parts ([1]; NP002 Patients Week 10): 8.5 +/- 5.4 | UDysRS Evaluation of Dyskinesias on Ambulation ([1]; NP002 Patients Week 10): 5.1 +/- 5.3 | UDysRS Evaluation of Dyskinesias on Communication ([1]; NP002 Patients Week 10): 7.0 +/- 5.0 | UDysRS Evaluation of Dyskinesias on Dressing ([1]; NP002 Patients Week 10): 6.9 +/- 5.5 | UDysRS Evaluation of Dyskinesias on Drinking ([1]; NP002 Patients Week 10): 5.3 +/- 5.0 | UPDRS II [1, 8]: 10.1 ± 5.3 | UPDRS III [1, 8]: 17.3 ± 10.6 | UPDRS II [1, 9]: 13.1 ± 6.0 | UPDRS III [1, 9]: 20.0 ± 8.8 | Difference in LS Means 95% Confidence Interval, UPDRS Part III ([1]; NP002 versus Placebo, p-value 0.337): -18.3 ± 1.8 (-5.8, 2.0) | Difference in LS Means 95% Confidence Interval, UPDRS Part II ([1]; NP002 versus Placebo, p-value 0.631): 10.1 ± 0.96 (-3.2, 2.0) | UDysRS Evaluation of Dyskinesias on Ambulation, Difference LS Means ([1]; NP002 vs placebo, p-value 0.011*): -3.7 +/-1.9 | UDysRS Evaluation of Dyskinesias on 7 Body Parts, Difference LS Means ([1]; NP002 vs placebo, p-value 0.062): -2.8 +/-2.6 | Total Score UDysRS, Difference LS Means ([1]; NP002 vs placebo, p-value 0.092): -6.7 +/-4.1 | UDysRS Evaluation of Dyskinesias on Dressing, Difference LS Means ([1]; NP002 vs placebo, p-value 0.139): -2.1 +/-1.4 | UDysRS Evaluation of Dyskinesias on Drinking, Difference LS Means ([1]; NP002 vs placebo, p-value 0.171): -2.4 +/-1.7 | UDysRS Evaluation of Dyskinesias on Communication, Difference LS Means ([1]; NP002 vs placebo, p-value 0.189): -1.9 +/-1.4 | patients with a reduction in retropulsion ([1]; Ten of 30 NP002 patients, p=0.0228 vs placebo): 33.3% | patients with a reduction in FOG ([1]; Twelve of 30 NP002 patients, p=0.04301 vs placebo): 40% | PGI-C responders (subjects with a score of 1, 2, or 3) ([1]; Visit 4 (Week 10), 21 responders, p = 0.0048 vs placebo): 77.8% | UPDRS II Change ([1]; baseline to 10 weeks): 2.8 + 5.2 | UPDRS III Change ([1]; baseline to 10 weeks): 2.0 + 7.5 | patient- and physician-rated assessments of efficacy versus placebo ([1]; human, in vivo): superior to placebo | patients with either a reduction or absence of FOG during the active phase ([1]; human, in vivo): ~73% | patients with either a reduction or absence of falls during the active phase ([1]; human, in vivo): ~87% | patients with no FOG during the study ([1]; of 30 NP002 patients): 10 | patients with no falls during the study ([1]; of 30 NP002 patients): 12 | reduction (improvement) in the effect of LIDs on ambulation, UDysRS ambulation subtest ([1]; p=0.011 vs placebo): 46% | reduction in LIDs, Total UDysRS ([1]; p=0.092 vs placebo): 39% | Adverse Event: Constipation ([2]; N=35): 5 (14.3) Number (%) | Adverse Event: Diarrhea ([2]; N=35): 2 (5.7) Number (%) | Adverse Event: Dizziness ([2]; N=35): 7 (20.0) Number (%) | Adverse Event: Fatigue ([2]; N=35): 3 (8.6) Number (%) | Adverse Event: Headache ([2]; N=35): 2 (5.7) Number (%) | Adverse Event: Insomnia ([2]; N=35): 0 (0.0) Number (%) | Adverse Event: Nausea ([2]; N=35): 13 (37.1) Number (%) | Adverse Event: Nightmare ([2]; N=35): 2 (5.7) Number (%) | Adverse Event: Pain ([2]; N=35): 3 (8.6) Number (%) | Adverse Event: Pain in extremity ([2]; N=35): 2 (5.7) Number (%) | Adverse Event: Tremor ([2]; N=35): 2 (5.7) Number (%) | Adverse Event: Vomiting ([2]; N=35): 4 (11.4) Number (%) | Number (%) of subject with any AE ([2]; N=35): 26 (74.3) Number (%) | Serum cotinine levels ([2]; compliance check): paralleled dosing of nicotine | adverse events reported ([2]; number of events among NP002 patients): 45 | Primary reason for study discontinuation: Adverse event ([2]; of 35 randomized): 6 (17.1) n (%) | Primary reason for study discontinuation: Protocol violation ([2]; of 35 randomized): 2 (5.7) n (%) | Subjects who completed study per protocol ([2]; of 35 randomized): 25 (71.4) n (%) | Subjects who discontinued the study ([2]; of 35 randomized): 10 (28.6) n (%) | subjects who completed the study ([2]; of 35 randomized): 25 subjects | subjects who withdrew because of AEs ([2]; of 35 randomized): 6 subjects | subjects who withdrew because of protocol violations ([2]; of 35 randomized): 2 subjects | subjects who withdrew from the study ([2]; of 35 randomized): 10 subjects | Primary reason for study discontinuation: Other ([2]; subject going on vacation, of 35 randomized): 2 (5.7) n (%) | Subjects who required dose reduction or discontinuation of study treatment ([2]; treated subjects with any adverse events with action taken = reduced/discontinued study drug, of 35 randomized): 7 (20.0) n (%) | time by which the plasma concentration of nicotine returns close to baseline [3]: ~ 6 hours | Tmax (clinical): ~1.5 h
